Results: the supplement of paper PMC10307832

What was measured:
Assay in all cases: relative viability (nuclei count vs DMSO), 5 days (fraction); higher = more cells survive
4EGI-1 + OSI-027 = compound: O=C(O)C(Cc1ccccc1[N+](=O)[O-])=NNc1nc(-c2ccc(Cl)c(Cl)c2)cs1 (mixture of isomers) [4EGI-1] + COc1cccc2cc(-c3nc([C@H]4CC[C@H](C(=O)O)CC4)n4ncnc(N)c34)[nH]c12 [OSI-027] (partner 0.5 µM)
Summary of the method: (§1)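 For relative viability, nuclei counts in treated wells were divided by those in vehicle wells. Lung cancer cell lines had been pin-tool dosed in 1536-well plates the day after seeding and cultured for 5 days, then fixed and stained in one step (final 0.05% Triton X-100, 1% formaldehyde, 1 ug/ml Hoechst) and imaged at 4×. Doses were one drug alone or a fixed anchor-drug dose plus five library-drug doses (not always all listed) in √10 steps, and values are duplicate-plate medians.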

XMD8-85 + Foretinib = compound: CN1CCN(CC1)C2=CC(=C(C=C2)NC3=NC=C4C(=N3)N(C5=CC=CC=C5C(=O)N4C)C)OC [XMD8-85] + COc1cc2c(Oc3ccc(NC(=O)C4(C(=O)Nc5ccc(F)cc5)CC4)cc3F)ccnc2cc1OCCCN1CCOCC1 [Foretinib] (partner 0.25 µM)
Summary of the method: as §1

4EGI-1 + Pemetrexed = compound: O=C(O)C(Cc1ccccc1[N+](=O)[O-])=NNc1nc(-c2ccc(Cl)c(Cl)c2)cs1 (mixture of isomers) [4EGI-1] + Nc1nc2[nH]cc(CCc3ccc(C(=O)N[C@@H](CCC(=O)O)C(=O)O)cc3)c2c(=O)[nH]1 [Pemetrexed] (partner 0.2 µM)
Summary of the method: as §1

4EGI-1 + Lapatinib = compound: O=C(O)C(Cc1ccccc1[N+](=O)[O-])=NNc1nc(-c2ccc(Cl)c(Cl)c2)cs1 (mixture of isomers) [4EGI-1] + CS(=O)(=O)CCNCc1ccc(-c2ccc3ncnc(Nc4ccc(OCc5cccc(F)c5)c(Cl)c4)c3c2)o1 [Lapatinib] (partner 2 µM)
Summary of the method: as §1

Row | Cell Line | relative viability (4EGI-1 + OSI-027; first compound 0.5 µM) | relative viability (4EGI-1 + OSI-027; first compound 1.581 µM) | relative viability (4EGI-1 + OSI-027; first compound 5 µM) | relative viability (4EGI-1 + OSI-027; first compound 15.81 µM) | relative viability (4EGI-1 + OSI-027; first compound 50 µM) | relative viability (XMD8-85 + Foretinib; first compound 0.08 µM) | relative viability (XMD8-85 + Foretinib; first compound 0.253 µM) | relative viability (XMD8-85 + Foretinib; first compound 0.8 µM) | relative viability (XMD8-85 + Foretinib; first compound 2.53 µM) | relative viability (XMD8-85 + Foretinib; first compound 8 µM) | relative viability (4EGI-1 + Pemetrexed; first compound 0.5 µM) | relative viability (4EGI-1 + Pemetrexed; first compound 1.581 µM) | relative viability (4EGI-1 + Pemetrexed; first compound 5 µM) | relative viability (4EGI-1 + Pemetrexed; first compound 15.81 µM) | relative viability (4EGI-1 + Pemetrexed; first compound 50 µM) | relative viability (4EGI-1 + Lapatinib; first compound 0.5 µM) | relative viability (4EGI-1 + Lapatinib; first compound 1.581 µM) | relative viability (4EGI-1 + Lapatinib; first compound 5 µM) | relative viability (4EGI-1 + Lapatinib; first compound 15.81 µM) | relative viability (4EGI-1 + Lapatinib; first compound 50 µM)
1 | NCI-H1623 | 0.457 | 0.418 | 0.475 | 0.324 | 0.382 | 0.986 | 0.816 | 0.789 | 0.857 | 0.667 | – | – | – | – | – | – | – | – | – | –
2 | NCI-H2126 | 0.721 | 0.697 | 0.778 | 0.572 | 0.511 | 1.07 | 1.03 | 1.13 | 0.996 | 0.935 | 0.793 | 0.712 | 0.681 | 0.596 | 0.537 | 0.832 | 0.836 | 0.76 | 0.736 | 0.643
3 | NCI-H596 | 0.844 | 0.579 | 0.905 | 0.62 | 0.518 | 0.844 | 0.85 | 0.983 | 0.642 | 0.502 | 0.535 | 0.458 | 0.51 | 0.455 | 0.43 | 1.07 | 1.03 | 1.23 | 0.958 | 0.609
4 | NCI-H2009 | 0.765 | 0.651 | 0.768 | 0.657 | 0.161 | 1.24 | 1.25 | 1.23 | 1.08 | 0.516 | 1.01 | 1 | 1.04 | 0.951 | 0.805 | 1.06 | 0.879 | 0.962 | 0.744 | 0.177
5 | NCI-H2228 | 0.674 | 0.54 | 0.594 | 0.607 | 0.13 | 0.88 | 0.758 | 0.789 | 0.816 | 0.423 | 0.377 | 0.472 | 0.367 | 0.338 | 0.164 | 1.36 | 1.1 | 1.03 | 0.803 | 0.172
6 | NCI-H2085 | 0.837 | 0.777 | 0.704 | 0.378 | 0.428 | 0.902 | 0.854 | 0.823 | 0.751 | 0.563 | 0.979 | 0.954 | 0.915 | 0.646 | 0.621 | 0.857 | 0.769 | 0.807 | 0.586 | 0.357
7 | SW 900 | 0.72 | – | 0.586 | 0.46 | 0.207 | 0.942 | 0.922 | 1.58 | 0.466 | 0.403 | 0.496 | 0.513 | 0.485 | 0.405 | 0.136 | – | – | – | – | –
8 | H3255 | 0.655 | 0.564 | 0.611 | 0.448 | 0.578 | 1.03 | 0.917 | 0.892 | 0.931 | 0.627 | 0.598 | 0.574 | 0.524 | 0.453 | 0.395 | 0.254 | 0.228 | 0.259 | 0.222 | 0.279
9 | NCI-H727 | 0.669 | 0.652 | 0.538 | 0.552 | 0.451 | 0.895 | 1.05 | 0.823 | 0.553 | 0.693 | – | – | – | – | – | 0.96 | 0.712 | 0.96 | 0.724 | 0.391
10 | NCI-H1299 | – | – | – | – | – | 1.13 | 1.1 | 1.1 | 1.11 | 0.86 | – | – | – | – | – | 0.932 | 0.957 | 1.02 | 0.987 | 0.357
11 | NCI-H1648 | 0.254 | 0.26 | 0.252 | 0.302 | 0.213 | – | – | – | – | – | 0.728 | 0.782 | 0.745 | 0.643 | 0.689 | – | – | – | – | –
12 | ChaGo-K-1 | 0.595 | 0.526 | 0.558 | 0.483 | 0.381 | 0.823 | 1.01 | 0.93 | 0.867 | 0.774 | 0.26 | 0.266 | 0.269 | 0.267 | 0.265 | – | – | – | – | –
13 | Calu-6 | – | – | – | – | – | 0.858 | 0.948 | 0.879 | 0.804 | 0.674 | – | – | – | – | – | 1.07 | 1 | 1.03 | 1 | 0.206
14 | IA-LM | – | – | – | – | – | 1.07 | 1.11 | 1.24 | 0.964 | 0.292 | – | – | – | – | – | 0.886 | 0.589 | 0.581 | 0.109 | 0.0728
15 | EBC-1 | – | – | – | – | – | 0.104 | 0.0951 | 0.112 | 0.0978 | 0.0972 | – | – | – | – | – | 0.205 | 0.246 | 0.201 | 0.217 | 0.166
16 | NCI-H441 | 0.812 | 0.488 | 0.653 | 0.478 | 0.333 | 1.11 | 0.971 | 1.15 | 1.13 | 0.644 | 0.257 | 0.249 | 0.276 | 0.229 | 0.184 | – | – | – | – | –
17 | A549 | – | – | – | – | – | 1.02 | 0.869 | 1.11 | 1.05 | 0.913 | – | – | – | – | – | 1.15 | 1.04 | 1.09 | 0.77 | 0.0791
18 | ABC-1 | 0.642 | 0.357 | 0.455 | 0.313 | 0.218 | 0.871 | 0.9 | 1.41 | 0.947 | 0.578 | – | – | – | – | – | 1.06 | 1.46 | 1.24 | 1.17 | 1.16
19 | LCLC-103H | 0.479 | 0.469 | 0.482 | 0.471 | 0.333 | 0.842 | 0.919 | 0.692 | 0.857 | 0.554 | 0.443 | 0.409 | 0.474 | 0.435 | 0.477 | – | – | – | – | –
20 | NCI-H1703 | – | – | – | – | – | 0.353 | 0.363 | 0.33 | 0.374 | 0.35 | – | – | – | – | – | 1.46 | 0.955 | 1.17 | 1.22 | 0.437
21 | NCI-H522 | 0.69 | 0.645 | 0.693 | 0.689 | 0.63 | – | – | – | – | – | 0.948 | 0.981 | 1.07 | 1.06 | 0.718 | – | – | – | – | –
